Measured values taken from the supplement of paper PMC10883282.

Assays:
Test in all cases: relative viability vs DMSO control (72 h) (fraction); higher = more viable cells
A204 = test system: A204
Outline: (§1)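 After seeding at densities set for 80–90% confluence in 384-well plates, sarcoma cell lines waited 24 h before 2.5 µl of serially diluted compound was added. Source plates held 10 mM down to 0.0002 mM. Plates were incubated 72 h at 37 °C with 5% CO2, with 0.1% DMSO vehicle and a 5 µM positive control, and relative viability was taken from ATPLite as percent growth averaged over up to triplicate wells, with 1 set as full and 0 as none.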

G401 = test system: G401
Outline: as §1

HT1080 = test system: HT1080
Outline: as §1

KHOS-240S = test system: KHOS-240S
Outline: as §1

KHOS-NP = test system: KHOS-NP
Outline: as §1

RD-ES = test system: RD-ES
Outline: as §1

SK-ES-1 = test system: SK-ES-1
Outline: as §1

SW1353 = test system: SW1353
Outline: as §1

SW684 = test system: SW684
Outline: as §1

SW872 = test system: SW872
Outline: as §1

SW982 = test system: SW982
Outline: as §1

SYO-1 = test system: SYO-1
Outline: as §1

Cc1cc(Nc2ncc(Cl)c(Nc3ccccc3S(=O)(=O)C(C)C)n2)c(OC(C)C)cc1C1CCNCC1 [Ceritinib]
Details	relative viability
A204, 0.00017 µM	1.05
A204, 0.00051 µM	1.07
A204, 0.00152 µM	1.08
A204, 0.00457 µM	1.07
A204, 0.01372 µM	1.07
A204, 0.04115 µM	1.06
A204, 0.1235 µM	1.06
A204, 0.3704 µM	1.04
A204, 1.111 µM	0.928
A204, 3.333 µM	0.334
A204, 10 µM	0.0012
G401, 0.00017 µM	0.953
G401, 0.00051 µM	0.932
G401, 0.00152 µM	0.971
G401, 0.00457 µM	0.974
G401, 0.01372 µM	0.972
G401, 0.04115 µM	0.961
G401, 0.1235 µM	0.918
G401, 0.3704 µM	0.788
G401, 1.111 µM	0.615
G401, 3.333 µM	0.416
G401, 10 µM	-0.00287
HT1080, 0.00017 µM	1.02
HT1080, 0.00051 µM	1.01
HT1080, 0.00152 µM	1.02
HT1080, 0.00457 µM	1.04
HT1080, 0.01372 µM	1.02
HT1080, 0.04115 µM	1.06
HT1080, 0.1235 µM	1.04
HT1080, 0.3704 µM	1.03
HT1080, 1.111 µM	0.983
HT1080, 3.333 µM	0.777
HT1080, 10 µM	-0.000267
KHOS-240S, 0.00017 µM	0.991
KHOS-240S, 0.00051 µM	0.992
KHOS-240S, 0.00152 µM	1
KHOS-240S, 0.00457 µM	1.01
KHOS-240S, 0.01372 µM	1.01
KHOS-240S, 0.04115 µM	1.02
KHOS-240S, 0.1235 µM	0.9951
KHOS-240S, 0.3704 µM	0.897
KHOS-240S, 1.111 µM	0.826
KHOS-240S, 3.333 µM	0.439
KHOS-240S, 10 µM	0.0022
KHOS-NP, 0.00017 µM	1.04
KHOS-NP, 0.00051 µM	1.04
KHOS-NP, 0.00152 µM	1.04
KHOS-NP, 0.00457 µM	1.06
KHOS-NP, 0.01372 µM	1.06
KHOS-NP, 0.04115 µM	1.05
KHOS-NP, 0.1235 µM	1.05
KHOS-NP, 0.3704 µM	1.02
KHOS-NP, 1.111 µM	1.02
KHOS-NP, 3.333 µM	0.95
KHOS-NP, 10 µM	0.0055
RD-ES, 0.00017 µM	0.94
RD-ES, 0.00051 µM	0.938
RD-ES, 0.00152 µM	0.955
RD-ES, 0.00457 µM	0.957
RD-ES, 0.01372 µM	0.955
RD-ES, 0.04115 µM	0.943
RD-ES, 0.1235 µM	0.89
RD-ES, 0.3704 µM	0.681
RD-ES, 1.111 µM	0.454
RD-ES, 3.333 µM	0.304
RD-ES, 10 µM	0.00243
SK-ES-1, 0.00017 µM	0.967
SK-ES-1, 0.00051 µM	0.984
SK-ES-1, 0.00152 µM	1
SK-ES-1, 0.00457 µM	0.974
SK-ES-1, 0.01372 µM	0.961
SK-ES-1, 0.04115 µM	0.995
SK-ES-1, 0.1235 µM	0.914
SK-ES-1, 0.3704 µM	0.6537
SK-ES-1, 1.111 µM	0.339
SK-ES-1, 3.333 µM	0.102
SK-ES-1, 10 µM	0.000733
SW684, 0.00017 µM	1.07
SW684, 0.00051 µM	1.083
SW684, 0.00152 µM	1.09
SW684, 0.00457 µM	1.08
SW684, 0.01372 µM	1.12
SW684, 0.04115 µM	1.095
SW684, 0.1235 µM	1.122
SW684, 0.3704 µM	1.08
SW684, 1.111 µM	1.15
SW684, 3.333 µM	0.883
SW684, 10 µM	-0.0212
SW872, 0.00017 µM	1
SW872, 0.00051 µM	1.02
SW872, 0.00152 µM	1.07
SW872, 0.00457 µM	1.06
SW872, 0.01372 µM	1.09
SW872, 0.04115 µM	1.04
SW872, 0.1235 µM	1
SW872, 0.3704 µM	0.946
SW872, 1.111 µM	0.8717
SW872, 3.333 µM	0.631
SW872, 10 µM	-0.00807
SW982, 0.00017 µM	0.974
SW982, 0.00051 µM	0.943
SW982, 0.00152 µM	0.946
SW982, 0.00457 µM	0.92
SW982, 0.01372 µM	0.959
SW982, 0.04115 µM	0.9674
SW982, 0.1235 µM	0.902
SW982, 0.3704 µM	0.765
SW982, 1.111 µM	0.64
SW982, 3.333 µM	0.311
SW982, 10 µM	0.00217
SW1353, 0.00017 µM	0.94
SW1353, 0.00051 µM	0.939
SW1353, 0.00152 µM	0.969
SW1353, 0.00457 µM	0.953
SW1353, 0.01372 µM	0.948
SW1353, 0.04115 µM	0.953
SW1353, 0.1235 µM	0.932
SW1353, 0.3704 µM	0.89
SW1353, 1.111 µM	0.901
SW1353, 3.333 µM	0.137
SW1353, 10 µM	0.00227
SYO-1, 0.00017 µM	1.02
SYO-1, 0.00051 µM	1.02
SYO-1, 0.00152 µM	1.06
SYO-1, 0.00457 µM	1.07
SYO-1, 0.01372 µM	1.05
SYO-1, 0.04115 µM	1.01
SYO-1, 0.1235 µM	0.987
SYO-1, 0.3704 µM	0.919
SYO-1, 1.111 µM	0.882
SYO-1, 3.333 µM	0.51
SYO-1, 10 µM	-0.00767
